{"source": "ChEMBL document CHEMBL1121574", "about": "“Third Smissman Award address: reminiscences and musings of a classical medicinal chemist” (J Med Chem, 1980)", "key": {"[1]": {"test": "Abstinence suppressant dose of the compound", "type": "functional"}, "Monkey [2]": {"tested_on": "Monkey", "test": "Physical dependence capacity at abstinence suppressant dose; Intermediate", "type": "functional, organism-based", "conditions": "Cercopithecidae"}, "Monkey [3]": {"tested_on": "Monkey", "test": "Physical dependence capacity at abstinence suppressant dose; Low", "type": "functional, organism-based", "conditions": "Cercopithecidae"}, "Monkey [4]": {"tested_on": "Monkey", "test": "Physical dependence capacity at abstinence suppressant dose; None", "type": "functional, organism-based", "conditions": "Cercopithecidae"}, "[5]": {"test": "Abstinence suppressant dose of the compound; range 0.5-12 mg/kg, no suppression", "type": "functional"}, "[6]": {"test": "Abstinence suppressant dose of the compound; range 2-12mg/kg, no suppression", "type": "functional"}, "[7]": {"test": "Abstinence suppressant dose of the compound; range 2-60 mg/kg, no suppression", "type": "functional"}, "[8]": {"test": "Abstinence suppressant dose of the compound; range 2-60 no suppression", "type": "functional"}, "[9]": {"test": "Abstinence suppressant dose of the compound; range 1-16 mg/kg, no suppression", "type": "functional"}, "[10]": {"test": "Abstinence suppressant dose of the compound; range 3-30 mg/kg, no suppression", "type": "functional"}, "Mus musculus [11]": {"species_on_record": "Mus musculus", "test": "Analgesic activity in mouse", "type": "functional"}, "Monkey [12]": {"tested_on": "Monkey", "test": "Physical dependence capacity at abstinence suppressant dose; High", "type": "functional, organism-based", "conditions": "Cercopithecidae"}, "Monkey [13]": {"tested_on": "Monkey", "test": "Physical dependence capacity at abstinence suppressant dose; low", "type": "functional, organism-based", "conditions": "Cercopithecidae"}, "Monkey [14]": {"tested_on": "Monkey", "test": "Physical dependence capacity at abstinence suppressant dose; Very low", "type": "functional, organism-based", "conditions": "Cercopithecidae"}, "Monkey [15]": {"tested_on": "Monkey", "test": "Physical dependence capacity at abstinence suppressant dose; No", "type": "functional, organism-based", "conditions": "Cercopithecidae"}, "Mus musculus [16]": {"species_on_record": "Mus musculus", "test": "The compound was tested for its analgesic activity in mouse; Inactive", "type": "functional, organism-based"}, "Monkey [17]": {"tested_on": "Monkey", "test": "Physical dependence capacity at abstinence suppressant dose; high", "type": "functional, organism-based", "conditions": "Cercopithecidae"}}, "note": "The source made the active and inactive calls. No cut-off for these calls is given here."}
{"molecule": "CC[C@]12CCN(C)C(Cc3ccc(O)cc31)C2C", "note": "(some centres undefined)", "values": [{"measurement": "Dose", "setting": "[1]", "result": 1, "unit": "mg/kg"}, {"measurement": "Physical dependence capacity", "setting": "Monkey [2]", "result": "Intermediate"}]}
{"molecule": "CC1C2Cc3ccc(O)cc3[C@]1(C)CCN2C", "note": "(some centres undefined)", "values": [{"measurement": "Dose", "setting": "[1]", "result": ">18", "unit": "mg/kg"}, {"measurement": "Physical dependence capacity", "setting": "Monkey [3]", "result": "Low"}]}
{"molecule": "CCC1C2Cc3ccc(O)cc3[C@]1(CC)CCN2C", "note": "(some centres undefined)", "values": [{"measurement": "Physical dependence capacity", "setting": "Monkey [4]", "result": "inactive"}, {"measurement": "Dose", "setting": "[5]", "result": 0.5, "unit": "mg/kg"}]}
{"molecule": "CC[C@H]1C2Cc3ccc(O)cc3[C@]1(C)CCN2C", "values": [{"measurement": "Physical dependence capacity", "setting": "Monkey [4]", "result": "inactive"}, {"measurement": "Dose", "setting": "[6]", "result": 2, "unit": "mg/kg"}]}
{"molecule": "CN1CC[C@]2(C)CC1Cc1ccc(O)cc12", "note": "[listing 1 of 2 here]", "values": [{"measurement": "Dose", "setting": "[7]", "result": 2, "unit": "mg/kg"}]}
{"molecule": "CC[C@]12CCN(C)C(Cc3ccc(O)cc31)[C@@H]2C", "values": [{"measurement": "Dose", "setting": "[1]", "result": ">40", "unit": "mg/kg"}, {"measurement": "Physical dependence capacity", "setting": "Monkey [3]", "result": "Low"}]}
{"molecule": "C[C@H]1C2Cc3ccc(O)cc3[C@]1(C)CCN2C", "note": "[listing 1 of 2 here]", "values": [{"measurement": "Dose", "setting": "[1]", "result": 24, "unit": "mg/kg"}]}
{"molecule": "CC[C@H]1C2Cc3ccc(O)cc3[C@]1(CC)CCN2C", "note": "[listing 1 of 2 here]", "values": [{"measurement": "Dose", "setting": "[8]", "result": 2, "unit": "mg/kg"}]}
{"molecule": "CC[C@]12CCN(C)C(Cc3ccc(O)cc31)C2", "note": "[listing 1 of 2 here]", "values": [{"measurement": "Dose", "setting": "[9]", "result": 1, "unit": "mg/kg"}]}
{"molecule": "CCC[C@]12CCN(C)C(Cc3ccc(O)cc31)C2", "values": [{"measurement": "Dose", "setting": "[10]", "result": 3, "unit": "mg/kg"}, {"measurement": "Physical dependence capacity", "setting": "Monkey [4]", "result": "inactive"}]}
{"molecule": "CC[C@H]1C2Cc3ccc(O)cc3[C@]1(CC)CCN2C", "note": "[listing 2 of 2 here]", "values": [{"measurement": "Physical dependence capacity", "setting": "Monkey [4]", "result": "inactive"}]}
{"molecule": "CC[C@]12CCN(C)C(Cc3ccc(O)cc31)C2", "note": "[listing 2 of 2 here]", "values": [{"measurement": "Physical dependence capacity", "setting": "Monkey [3]", "result": "Low"}]}
{"molecule": "CN1CC[C@]2(C)CC1Cc1ccc(O)cc12", "note": "[listing 2 of 2 here]", "values": [{"measurement": "Physical dependence capacity", "setting": "Monkey [4]", "result": "inactive"}]}
{"molecule": "C[C@H]1C2Cc3ccc(O)cc3[C@]1(C)CCN2C", "note": "[listing 2 of 2 here]", "values": [{"measurement": "Physical dependence capacity", "setting": "Monkey [3]", "result": "Low"}]}
{"molecule": "CN1CC[C@]2(C)CC1Cc1ccc(O)cc12", "note": "(single isomer, unassigned; (+)) [listing 1 of 2 here]", "values": [{"measurement": "ED50", "setting": "Mus musculus [11]", "result": 22.9, "unit": "mg/kg"}]}
{"molecule": "CC[C@H]1C2Cc3ccc(O)cc3[C@]1(CC)CCN2C", "note": "(single isomer, unassigned; (+)) [listing 1 of 2 here]", "values": [{"measurement": "ED50", "setting": "Mus musculus [11]", "result": 7.5, "unit": "mg/kg"}]}
{"molecule": "CC[C@]12CCN(C)C(Cc3ccc(O)cc31)C2", "note": "(single isomer, unassigned; (+)) [listing 1 of 2 here]", "values": [{"measurement": "ED50", "setting": "Mus musculus [11]", "result": 21.8, "unit": "mg/kg"}]}
{"molecule": "CCC[C@]12CCN(C)C(Cc3ccc(O)cc31)[C@@H]2C", "note": "(single isomer, unassigned; (+)) [listing 1 of 2 here]", "values": [{"measurement": "ED50", "setting": "Mus musculus [11]", "result": 12.3, "unit": "mg/kg"}]}
{"molecule": "CCC[C@]12CCN(C)C(Cc3ccc(O)cc31)[C@@H]2C", "note": "(single isomer, unassigned; (+)) [listing 2 of 2 here]", "values": [{"measurement": "Physical dependence capacity", "setting": "Monkey [12]", "result": "High"}]}
{"molecule": "CC[C@H]1C2Cc3ccc(O)cc3[C@]1(CC)CCN2C", "note": "(single isomer, unassigned; (+)) [listing 2 of 2 here]", "values": [{"measurement": "Physical dependence capacity", "setting": "Monkey [2]", "result": "Intermediate"}]}
{"molecule": "CC[C@]12CCN(C)C(Cc3ccc(O)cc31)C2", "note": "(single isomer, unassigned; (+)) [listing 2 of 2 here]", "values": [{"measurement": "Physical dependence capacity", "setting": "Monkey [13]", "result": "Low"}]}
{"molecule": "CN1CC[C@]2(C)CC1Cc1ccc(O)cc12", "note": "(single isomer, unassigned; (+)) [listing 2 of 2 here]", "values": [{"measurement": "Physical dependence capacity", "setting": "Monkey [14]", "result": "Very low"}]}
{"molecule": "C[C@H]1C2Cc3ccc(O)cc3[C@]1(C)CCN2C", "note": "(single isomer, unassigned; (+))", "values": [{"measurement": "Physical dependence capacity", "setting": "Monkey [15]", "result": "No dependance"}, {"measurement": "ED50", "setting": "Mus musculus [16]", "result": "inactive"}]}
{"molecule": "CN1CC[C@]2(C)CC1Cc1ccc(O)cc12", "note": "(single isomer, unassigned; (-)) [listing 1 of 2 here]", "values": [{"measurement": "ED50", "setting": "Mus musculus [11]", "result": 1.8, "unit": "mg/kg"}]}
{"molecule": "C[C@H]1C2Cc3ccc(O)cc3[C@]1(C)CCN2C", "note": "(single isomer, unassigned; (-)) [listing 1 of 2 here]", "values": [{"measurement": "ED50", "setting": "Mus musculus [11]; Mus musculus, read-out: ED50", "result": 0.6, "unit": "mg/kg"}]}
{"molecule": "CC[C@H]1C2Cc3ccc(O)cc3[C@]1(CC)CCN2C", "note": "(single isomer, unassigned; (-)) [listing 1 of 2 here]", "values": [{"measurement": "ED50", "setting": "Mus musculus [11]", "result": 1.2, "unit": "mg/kg"}]}
{"molecule": "CC[C@]12CCN(C)C(Cc3ccc(O)cc31)C2", "note": "(single isomer, unassigned; (-)) [listing 1 of 2 here]", "values": [{"measurement": "ED50", "setting": "Mus musculus [11]", "result": 0.6, "unit": "mg/kg"}]}
{"molecule": "CCC[C@]12CCN(C)C(Cc3ccc(O)cc31)[C@@H]2C", "note": "(single isomer, unassigned; (-)) [listing 1 of 2 here]", "values": [{"measurement": "ED50", "setting": "Mus musculus [11]", "result": 0.8, "unit": "mg/kg"}]}
{"molecule": "CCC[C@]12CCN(C)C(Cc3ccc(O)cc31)[C@@H]2C", "note": "(single isomer, unassigned; (-)) [listing 2 of 2 here]", "values": [{"measurement": "Physical dependence capacity", "setting": "Monkey [15]", "result": "No dependance"}]}
{"molecule": "CC[C@H]1C2Cc3ccc(O)cc3[C@]1(CC)CCN2C", "note": "(single isomer, unassigned; (-)) [listing 2 of 2 here]", "values": [{"measurement": "Physical dependence capacity", "setting": "Monkey [15]", "result": "No dependance"}]}
{"molecule": "CC[C@]12CCN(C)C(Cc3ccc(O)cc31)C2", "note": "(single isomer, unassigned; (-)) [listing 2 of 2 here]", "values": [{"measurement": "Physical dependence capacity", "setting": "Monkey [15]", "result": "No dependance"}]}
{"molecule": "CN1CC[C@]2(C)CC1Cc1ccc(O)cc12", "note": "(single isomer, unassigned; (-)) [listing 2 of 2 here]", "values": [{"measurement": "Physical dependence capacity", "setting": "Monkey [3]", "result": "Low"}]}
{"molecule": "C[C@H]1C2Cc3ccc(O)cc3[C@]1(C)CCN2C", "note": "(single isomer, unassigned; (-)) [listing 2 of 2 here]", "values": [{"measurement": "Physical dependence capacity", "setting": "Monkey [15]", "result": "No dependance"}]}
{"molecule": "COc1ccc2c3c1O[C@H]1[C@@H](O)C=C[C@H]4[C@@H](C2)N(C)CC[C@@]341", "note": "[CODEINE]", "values": [{"measurement": "ED50", "setting": "Mus musculus [11]; Mus musculus, read-out: ED50", "result": 7.5, "unit": "mg/kg"}, {"measurement": "Physical dependence capacity", "setting": "Monkey [2]", "result": "Partially active"}]}
{"molecule": "CN1CC[C@]23c4c5ccc(O)c4O[C@H]2[C@@H](O)C=C[C@H]3[C@H]1C5", "note": "[MORPHINE]", "values": [{"measurement": "Physical dependence capacity", "setting": "Monkey [17]", "result": "Active"}, {"measurement": "ED50", "setting": "Mus musculus [11]; Mus musculus, read-out: ED50", "result": 1.2, "unit": "mg/kg"}]}
